Measured values as given in PMC10301603, “Potent and Selective Benzothiazole-Based Antimitotics with Improved Water Solubility: Design, Synthesis, and Evaluation as Novel Anticancer Agents” (Pharmaceutics, 2023).

Legend:
[1] = test system: bovine brain tubulin; assay: Tubulin polymerization inhibition (turbidimetry); assay type: biochemical; conditions: for % TPI: compounds tested at 10 µM, with respect to the negative control; for IC50: concentration inhibiting 50% of microtubular protein polymerization in vitro, read-out: TPI IC50
How it was run: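 Turbidimetric assay using calf-brain microtubular protein: polymerization started by a shift from 4 °C to 37 °C and followed by absorbance at 450 nm. Percent inhibition calculated against a ligand-free control; IC50 determined only for compounds giving >50% inhibition at 10 µM. Triplicates in two independent experiments using separate protein preparations.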

[2] = test system: HeLa cells; assay: Cell cycle analysis (PI, flow cytometry); assay type: cell-based, human; conditions: 8 and 14 200 nM, 9 500 nM
Experimental: (§1) An amount of 8 × 10^4 cells/mL (HeLa, MCF7, or U87 MG cells) were seeded in 6-well plates (2 mL/well) and incubated in complete DMEM medium (see above) at 37 °C and 5% CO2 atmosphere for 24 h. Then, the medium was replaced with fresh complete DMEM in the presence or absence of the selected compounds (8, 9, and 14). The concentration of the compounds was selected according to their IC50 value for the antiproliferative activity in each cell line (see above, Section 2.4.4). HeLa cells were treated with 200 nM of compounds 8 and 14 and 500 nM of compound 9; MCF7 cells were treated with 100 nM of compounds 8 and 14 and 500 nM of compound 9; and U87 MG cells were treated with 50 nM of compound 8 and 100 nM of compounds 9 and 14. Untreated cells were used as negative controls. Cells were harvested 24, 48, or 72 h following treatment and fixed in ice-cold ethanol/PBS (7:3) overnight. Cells were then washed twice with PBS, suspended in PBS, and incubated overnight in darkness with 0.2 mg/mL RNase A (Sigma-Aldrich, St. Louis, MO, USA), 50 µg/mL propidium iodide (Sigma-Aldrich, St. Louis, MO, USA), and Triton 10× at room temperature. BD Accuri™ C6 Plus Flow Cytometer (BD Biosciences) was used to analyze samples, and BD Accuri™ C6 Software (version 1.0.264.21) was used for data analysis.

[3] = test system: MCF7 cells; assay: Cell cycle analysis (PI, flow cytometry); assay type: cell-based, human; conditions: 8 and 14 100 nM, 9 500 nM
Experimental: as §1

[4] = test system: HeLa cells; assay: Apoptotic cell death quantification (Annexin V-FITC/PI); assay type: cell-based, human; conditions: 72 h, 8 and 14 200 nM, 9 500 nM
Experimental: (§2) Annexin V-FITC/PI apoptosis detection kit (Immunostep, Salamanca, Spain) was used to quantify HeLa, MCF7, or U87 MG cells by following the manufacturer’s guidelines. An amount of 5 × 10^4 cells/mL were seeded in 12-well plates (1 mL/well) and incubated in complete DMEM medium (see above) at 37 °C and 5% CO2 atmosphere for 24 h. Then, the medium was replaced with fresh complete DMEM in the presence or absence of the selected compounds (8, 9, and 14). The concentration of the compounds was selected according to their IC50 value for the antiproliferative activity in each cell line (see above, Section 2.4.4). HeLa cells were treated with 200 nM of compounds 8 and 14 and 500 nM of compound 9; MCF7 cells were treated with 100 nM of compounds 8 and 14 and 500 nM of compound 9; and U87 MG cells were treated with 50 nM of compound 8 and 100 nM of compounds 9 and 14. Untreated cells were used as negative controls. After 72 h of incubation, cells were collected, centrifugated, resuspended in the Annexin V binding buffer, and stained with Annexin V-FITC/PI. Cells were then incubated in darkness for 15 min at room temperature. Samples were analyzed using BD Accuri™ C6 Plus Flow Cytometer (BD Biosciences), and acquired data were analyzed using BD Accuri™ C6 Software (version 1.0.264.21).

[5] = test system: MCF7 cells; assay: as above; assay type: cell-based, human; conditions: MCF7, 72 h; 8 and 14 100 nM, 9 500 nM
Experimental: as §2

[6] = test system: U87MG cells; assay: as above; assay type: cell-based, human; conditions: U87 MG, 72 h; 8 50 nM, 9 and 14 100 nM
Experimental: as §2

[7] = test system: tumor cell lines; assay: Cell growth inhibition assay (MTT), summary statements over several cell lines; assay type: cell-based; conditions: glioblastoma cell lines; read-out: antiproliferative IC50
Experimental: Cells were plated in 96-well plates (100 µL/well) at the following concentrations: 30,000 cells/mL (HepG2, U87 MG, T98G, C6, LNCaP, PC3, and HT-29 cells) or 15,000 cells/mL (HeLa and MCF-7 cells). Previous experiments were performed to choose the optimal cell concentration (70–80% confluence) and avoid the formation of cell aggregates. Cells were incubated in complete DMEM or RPMI 1640 medium (see above) at 37 °C and 5% CO2 atmosphere for 24 h to allow for cell attachment to the plate. Then, every compound was added (10 µL/well) to a final concentration of 10 µM. Non-treated cells were used as negative controls. The antiproliferative activity of compounds was measured 72 h after the treatments using the MTT reagent (3-[4,5-dimethylthiazol-2-yl]-2,5-diphenyltetrazolium bromide), (MTT Thiazolyl Blue Tetrazolium Bromide, Sigma-Aldrich, St. Louis, MO, USA) dissolved in PBS at 5 mg/mL. Compounds showing antiproliferative effects at 10 µM were selected to determine their IC50 value. For that purpose, compounds were used at different concentrations ranging from 10^−10 to 10^−2 M. Measurements were performed in triplicate, and each experiment was repeated three times. The IC50 value was determined for every compound using Origin software (OriginLab, Washington, USA). To study the sensitivity to MDR efflux pumps of compounds, the IC50 values were determined by following the same procedure but in the presence of verapamil (final concentration of 10 µM).

Row | SMILES | % TPI [1] [%] | IC50 [1] [nM] | G2/M population ([2]; 24 h) [%] | G2/M population ([2]; 48 h) [%] | sub G0/G1 population ([2]; 48 h) | sub G0/G1 population ([2]; 72 h) [%] | G2/M population ([3]; MCF7, 24 h) [%] | G2/M population ([3]; MCF7, 48 h) | SubG0/G1 population ([3]; MCF7, 48 h) [%] | G2/M population ([3]; MCF7, 72 h) | SubG0/G1 population ([3]; MCF7, 72 h) [%] | early and late apoptosis (apoptotic cells) [4] [%] | apoptosis (apoptotic cells) [5] [%] | cells in early or late apoptosis (response to Annexin V) [6] [%] | IC50 [7] [nM] | Alive cells (PI−, AnV−) [5] [%]
1 | COc1ccc2nc(N(C=O)Cc3cccnc3)sc2c1 [Compound 14, N-(6-methoxybenzo[d]thiazol-2-yl)-N-(pyridin-3-ylmethyl)formamide] | 87 | 4100 | 56 | 60 | 14–18% | 43 | 40 | 30–35% | 27 | 30–35% | 33 | 86 | 71 | 67 | 37 to 75 | 
2 | CCNC(=O)N(Cc1cccnc1)c1nc2ccc(OC)cc2s1 [Compound 8] | 100 | 2900 | 80 | 58 | 14–18% | 52 | 32 |  | 9 |  | 26 | 93 | 47 | 80 |  | 46
